Test results as given in patent publication US6670183B2, “88kDa tumorigenic growth factor and antagonists” (A & G Pharmaceutical, Inc., priority 1997, dated 2003).

Columns and labels:
GP88 mRNA = assay: regulation of GP88 mRNA expression in MDA MB-453 cells; assay type: cell-based, human
GP88 = assay: regulation of GP88 expression in 1246, 1246-3A and PC cells, Northern and Western blot; assay type: cell-based, mouse; conditions: 1246 cells
Experimental: Fifteen or twenty micrograms of total RNA per sample were subjected to electrophoresis on a denaturing 1.2% agarose gel containing 0.22 M formaldehyde in 1×MOPS (10×MOPS: 0.2 M MOPS, 50 mM NaOAc 10 mM EDTA). RNA was blotted on nitrocellulose membrane (MSI Inc., Westboro, Mass.) by overnight capillary transfer in 10×SSC (20×SSC=3 M NaCl, 0.3 M Na Citrate pH 7.0). […] Results were quantitated by densitometric scanning. Ribosomal protein L32 mRNA was detected as internal standard for normalizing RNA loading.
Amounts of cell lysate and culture medium to be analyzed were normalized by cell number of 18×10^5 and 3×10^5 respectively. […] Proteins were electro transferred to immobilon membranes and GP88 detected using anti K19T antibody conjugated to horseradish peroxidase and detected by enhanced chemiluminescence (ECL).
GP88 expression was examined in 1246 cells in different culture conditions such as defined medium and serum containing medium. It was shown that the level of expression of GP88 mRNA (measured by Northern blot analysis) and protein (measured by Western blot analysis) in 1246 and in 1246-3A cells is inhibited when the cells are treated with 2% fetal bovine serum indicating the presence of circulating inhibitors of GP88 expression in fetal bovine serum (FIG. 1C). […]

Q: Which “GP88 mRNA expression” value (GP88 mRNA) does the source give for insulin: hormone here?
A: Its value is “stimulated”.

Q: EGF: epidermal growth factor was tested. Which “GP88 mRNA expression” value (GP88) did it give?
A: The value was “stimulated”.
